In patent publication US20130123206A1, “TREATMENT OF METABOLIC SYNDROME AND INSULIN RESISTANCE WITH CITRUS FLAVANONES” (priority 2010, published 2013):
“Also recorded” adds a separate entry of the source.

How the values were obtained:
[1] = test system: bovine aortic endothelial cells (BAEC); assay: Evaluation of NO production in fixed cells (DAF-2 DA fluorescence); format: cell-based; conditions: for NO production in response to hesperetin after inhibitor pre-treatment: 10 min; for NO production in response to hesperetin after inhibitor pre-treatment / NO production in response to insulin after inhibitor pre-treatment: inhibitor added 30 min before DAF-2 DA loading; for NO production in response to insulin after inhibitor pre-treatment: insulin 100 nM, 5 min
Method: Bovine aortic endothelial cells (BAEC) in primary culture (Cell Applications, San Diego, Calif.) were grown in EBM (Endothelial Basal Medium) containing EGM-MV supplements (Endothelial Growth Medium-Micro Vascular; Cambrex, Walkersville, Md.) and used between passages 3 and 5 as previously described (Formoso et al., Mol Endocrinol, 20:1153-63, 2006). […] Biol. Chem. 282:13736-45, 2007; Formoso et al., Mol. Endocrinol. 20:1153-63, 2006). Briefly, BAECs were grown to 95% confluence in Lab-Tek™ chamber slides (Rochester, N.Y.) and then serum-starved overnight in phenol red-free EBM supplemented with L-arginine (100 μM). BAECs were loaded with DAF-2 DA (3 μM) for 20 minutes at 37° C. […] After loading with DAF-2 DA for 20 minutes, cells were washed with EBM at 37° C. and kept in the dark. Next, BAECs were treated with insulin (100 nM, 5 minutes), lysophosphatidic acid (LPA; 5 μM, 5 minutes), or hesperetin (10 μM, 10 minutes; Sigma). After treatment, cells were fixed in 4% paraformaldehyde (vol/vol) for 5 minutes at 4° C. Fixed cells were visualized using an Olympus IX81 inverted microscope with attached CCD camera (Retiga Exi, Burnaby, BC, Canada) using appropriate filters with a peak excitation wavelength of 480 nm and a peak emission wavelength of 510 nm. Images were captured using IPLab™ Software (Scanalytics, Inc., Fairfax, Va.).

[2] = test system: VCAM-1 expression in BAEC; assay: TNF-α-stimulated VCAM-1 expression by immunoblotting; format: cell-based, bovine; conditions: 5 hours
Method: FIG. 5A is a digital image showing vascular cell adhesion molecule-1 (VCAM-1) expression by immunoblotting. BAECs were serum-starved overnight and then treated without or with TNF-α (10 ng/ml, 5 hours). In some groups, cells were pre-treated with hesperetin (10 μM, 1 hour) prior to treatment with TNF-α. Cell lysates were immunoblotted using antibodies against VCAM-1 or β-actin. Representative immunoblots are shown for experiments that were repeated independently four times. BAECs were grown in 60 mm dishes, serum-starved overnight, and then treated with hesperetin (10 μM) for varying durations or for 10 minutes at different concentrations. In some experiments, Wortmannin (100 nM), or Compound C (5 μM) was added to cells 1 hour before treating with hesperetin. Cell lysates were prepared using 120 μl of lysis buffer (100 mM NaCl, 20 mM Hepes, pH 7.9, 1% Triton X-100, 1 mM Na3VO4, 4 mM sodium pyrophosphate, 10 mM EDTA, 1 mM phenylmethylsulfonyl fluoride, 10 mM NaF, and complete protease inhibitor cocktail (Roche Applied Sciences, Indianapolis, Ind.)). […] Immunoblots were quantified by scanning densitometry (GE Healthcare).

[3] = test system: U937 monocytes adhering to BAECs; assay: Monocyte adhesion assay; format: cell-based, bovine; conditions: 5 hours
Method: BAECs were cultured in 6-well plates and then treated with TNF-α (10 ng/ml, 5 hours) or hesperetin (10 μM, 5 hours). In some experiments, hesperetin was added 1 hour before treating cells with TNF-α. U937 monocytes were grown in DMEM medium containing 10% FBS in a culture flask. U937 monocytes were labeled for 15 min with 5 μM calcein-AM (Molecular Probes, Inc.). Labeled U937 cells (6×10^5 cells) were then incubated for 30 minutes at 37° C. with confluent BAECs pre-treated with hesperetin and/or TNF-α. Co-cultured cells were washed three times with PBS and then images of monocytes adhering to BAECs were obtained with an Olympus IX81 inverted microscope with attached CCD camera (Retiga Exi, Burnaby, BC, Canada) using appropriate filters. Images were captured using IPLab™ Software (Scanalytics, Inc., Fairfax, Va.).

[4] = test system: bovine aortic endothelial cells (BAEC); assay: Measurement of H2O2/ROS production (CM-H2DCF-DA fluorescence); format: cell-based; conditions: for production of ROS in BAEC: 10 μM, 10 minutes
Method: Briefly, BAECs were plated on chamber slides and incubated overnight in media free of phenol red, serum, and growth factors. Cells were then washed with Dulbecco's phosphate buffered saline containing calcium and magnesium (DPBS) before each experiment. Cells were loaded with CM-H2DCF-DA (5 μM, 20 minutes, 37° C.) and then washed to remove excess CM-H2DCF-DA. Cells were then treated with H2O2, hesperetin, or naringenin as indicated in the legends to figures followed by washing three times with DPBS. Some groups of cells were pre-treated with N-acetylcysteine (NAC) (10 mM, 2 hours). Cells were then visualized and images were captured as described for measurement of NO production.

[5] = test system: bovine aortic endothelial cells (BAEC); assay: Immunoblotting of phospho-AMPK, phospho-Akt, phospho-eNOS and phospho-Src in BAEC; format: cell-based
Method: Bovine aortic endothelial cells (BAEC) in primary culture (Cell Applications, San Diego, Calif.) were grown in EBM (Endothelial Basal Medium) containing EGM-MV supplements (Endothelial Growth Medium-Micro Vascular; Cambrex, Walkersville, Md.) and used between passages 3 and 5 as previously described (Formoso et al., Mol Endocrinol, 20:1153-63, 2006). BAECs were grown in 60 mm dishes, serum-starved overnight, and then treated with hesperetin (10 μM) for varying durations or for 10 minutes at different concentrations. In some experiments, Wortmannin (100 nM), or Compound C (5 μM) was added to cells 1 hour before treating with hesperetin. Cell lysates were prepared using 120 μl of lysis buffer (100 mM NaCl, 20 mM Hepes, pH 7.9, 1% Triton X-100, 1 mM Na3VO4, 4 mM sodium pyrophosphate, 10 mM EDTA, 1 mM phenylmethylsulfonyl fluoride, 10 mM NaF, and complete protease inhibitor cocktail (Roche Applied Sciences, Indianapolis, Ind.)). After centrifugation of samples at 17,000×g for 5 minutes at 4° C., supernatants were boiled with Laemmli sample buffer for 5 minutes and proteins (50 μg total protein) were resolved by 10% SDS-PAGE, transferred to nitrocellulose membranes, and immunoblotted using antibodies against eNOS (Transduction Laboratories), phospho-eNOS ([…]), Akt, phospho-Akt ([…]), AMPK, phospho-AMPK ([…]), Src ([…]) (Cell Signaling Technology), VCAM-1 (Santa Cruz, Calif.) or β-actin (Sigma) according to standard methods. Immunoblots were quantified by scanning densitometry (GE Healthcare).

[6] = hesperetin 10 μM, 1 hour before TNF-α 10 ng/ml
[7] = BAEC serum-starved overnight, hesperetin 10 min at varying concentrations or 10 μM for varying durations

Molecule: COC(=O)[C@@H](N)CCCNC(=N)N[N+](=O)[O-] [L-NAME, L-N^G-Nitroarginine methyl ester]
- NO production in response to hesperetin after inhibitor pre-treatment ([1]; hesperetin 10 μM): blocked
- NO production in response to insulin after inhibitor pre-treatment [1]: blocked

Molecule: TNF-α
- expression of VCAM-1 vs vehicle-treated control cells ([2]; TNF-α 10 ng/ml): increased
- adhesion of labeled monocytes vs vehicle-treated control cells ([3]; TNF-α 10 ng/ml): corresponding increase

Molecule: CC(=O)N[C@@H](CS)C(=O)O [N-acetylcysteine, reference compound]
- production of ROS after NAC pre-treatment ([4]; NAC 10 mM, 2 hours before loading): scavenged
- hesperetin and naringenin-stimulated phosphorylation of Src (Tyr418), Akt (Ser473), and eNOS (Ser1179) after NAC pre-treatment ([5]; NAC 10 mM, 2 hours, flavanone 10 μM, 10 min): inhibited

Molecule: COc1ccc([C@@H]2CC(=O)c3c(O)cc(O)cc3O2)cc1O [hesperetin]
- hesperetin-stimulated NO production in BAEC ([1]; DAF-2 DA, 10 min at varying concentrations or 10 μM for varying durations): concentration- and time-dependent increase
- time of peak production of NO ([1]; hesperetin 10 μM, BAEC): 5 to 10 min
- TNF-α-stimulated expression of VCAM-1 after hesperetin pre-treatment [2, 6]: substantially reduced
- production of ROS in BAEC [4]: stimulated
- TNF-α-stimulated adhesion of monocytes to endothelial cells after hesperetin pre-treatment [3, 6]: substantially reduced
- cellular levels of phosphorylated AMPK (Thr172) [5, 7]: Significant concentration-dependent effects; also recorded: acutely increased; also recorded: Significant time-dependent effects
- cellular levels of phosphorylated Akt (Ser473) [5, 7]: Significant concentration-dependent effects; also recorded: acutely increased; also recorded: Significant time-dependent effects
- phospho-eNOS (Ser1179) [5, 7]: Significant concentration-dependent effects; also recorded: increased; also recorded: Significant time-dependent effects

Molecule: c1cc(-c2cnn3cc(-c4ccc(OCCN5CCCCC5)cc4)cnc23)ccn1 [Compound C]
- NO production in response to hesperetin after inhibitor pre-treatment ([1]; hesperetin 10 μM): substantially inhibited

Molecule: O=C1C[C@@H](c2ccc(O)cc2)Oc2cc(O)cc(O)c21 [naringenin]
- production of ROS in BAEC [4]: stimulated

Molecule: CC(C)(C)n1nc(-c2ccc(Cl)cc2)c2c(N)ncnc21 [PP2]
- NO production in response to hesperetin after inhibitor pre-treatment ([1]; hesperetin 10 μM): inhibited
- NO production in response to insulin after inhibitor pre-treatment [1]: failed to inhibit
- hesperetin-stimulated phosphorylation of Src, Akt, and eNOS after PP2 pre-treatment ([5]; PP2 1 μM, 1 hour, hesperetin 10 μM, 10 min): inhibited
